In PMC5927461, “Activation of host transient receptor potential (TRP) channels by praziquantel stereoisomers” (PLoS Neglected Tropical Diseases, 2018):

Tests used:
TRPA1 = test system: TRPA1; design: method as in PMID 29054683; conditions: ≤100μM; cited from earlier work
hTRPM8 = hTRPM8 (Homo sapiens, UniProt Q7Z2W7); design: host or cells: HEK293 (ATCC CRL-1573.3), transient; method as in PMID 29054683; conditions: by microfluorimetry; partial agonist; cited from earlier work
TRPM5 = molecular target: T1, TRPM5 (Homo sapiens, UniProt Q9NZQ8); assay: TRP channel panel primary screen (membrane potential dye, stable CHO line); type: cell-based; conditions: 0.3-300μM
T1 sequence (Q9NZQ8 1-1165): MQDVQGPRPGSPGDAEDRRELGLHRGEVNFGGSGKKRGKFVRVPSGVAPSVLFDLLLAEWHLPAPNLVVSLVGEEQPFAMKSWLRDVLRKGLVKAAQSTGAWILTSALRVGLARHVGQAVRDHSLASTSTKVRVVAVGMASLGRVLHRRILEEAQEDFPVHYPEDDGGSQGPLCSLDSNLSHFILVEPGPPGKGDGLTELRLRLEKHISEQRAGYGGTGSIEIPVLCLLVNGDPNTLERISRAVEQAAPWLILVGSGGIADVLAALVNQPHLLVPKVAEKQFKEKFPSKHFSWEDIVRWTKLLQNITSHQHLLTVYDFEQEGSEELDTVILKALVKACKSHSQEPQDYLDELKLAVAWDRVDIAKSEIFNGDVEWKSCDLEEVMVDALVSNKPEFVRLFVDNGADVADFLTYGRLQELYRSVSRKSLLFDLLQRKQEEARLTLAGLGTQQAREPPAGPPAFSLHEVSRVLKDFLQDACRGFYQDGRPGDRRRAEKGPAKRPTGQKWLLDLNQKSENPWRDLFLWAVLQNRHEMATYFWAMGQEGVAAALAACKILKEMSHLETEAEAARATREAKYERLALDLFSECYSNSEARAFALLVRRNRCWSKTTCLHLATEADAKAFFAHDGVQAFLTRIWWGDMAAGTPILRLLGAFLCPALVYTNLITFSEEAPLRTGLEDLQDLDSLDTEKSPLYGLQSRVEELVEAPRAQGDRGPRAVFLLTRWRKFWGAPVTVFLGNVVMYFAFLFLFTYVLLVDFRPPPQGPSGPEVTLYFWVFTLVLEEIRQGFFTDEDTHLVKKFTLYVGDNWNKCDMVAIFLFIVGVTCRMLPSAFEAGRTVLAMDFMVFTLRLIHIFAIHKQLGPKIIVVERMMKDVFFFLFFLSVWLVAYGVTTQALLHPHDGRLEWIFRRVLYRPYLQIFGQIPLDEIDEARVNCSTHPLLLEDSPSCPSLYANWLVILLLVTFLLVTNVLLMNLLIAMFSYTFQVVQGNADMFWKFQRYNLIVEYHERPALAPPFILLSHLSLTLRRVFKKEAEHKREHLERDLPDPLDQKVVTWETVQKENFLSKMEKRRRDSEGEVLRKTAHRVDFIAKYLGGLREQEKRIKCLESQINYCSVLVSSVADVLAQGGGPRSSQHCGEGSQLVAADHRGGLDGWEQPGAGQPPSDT
Method: ±PZQ, (R)-PZQ and (S)-PZQ were screened against a panel of 17 human TRP channels (SB Drug Discovery, Glasgow). For all hTRPs, except for TRPM5, individual channel constructs were stably expressed in HEK cell lines. TRMP5 was expressed in a stable CHO cell line. In preparation for the assays, cells were trypsinized, counted and seeded (50,000 cells/well) in black, clear-bottomed 96 well plates and incubated overnight. […] Plates were screened using a Flexstation (Molecular Devices, FX01138), monitoring fluorescence values every ~1.52 seconds. For ‘agonist mode’ testing, 10μl of the appropriate test compound, or standard agonist, was added after 20 seconds and fluorescence monitored for 2 minutes at λex = 485nm, λem = 525nm for Ca^2+ imaging and λex = 530nm, λem = 565nm for membrane potential measurements. […]

hTRPM8, sequence (Q7Z2W7 whole entry): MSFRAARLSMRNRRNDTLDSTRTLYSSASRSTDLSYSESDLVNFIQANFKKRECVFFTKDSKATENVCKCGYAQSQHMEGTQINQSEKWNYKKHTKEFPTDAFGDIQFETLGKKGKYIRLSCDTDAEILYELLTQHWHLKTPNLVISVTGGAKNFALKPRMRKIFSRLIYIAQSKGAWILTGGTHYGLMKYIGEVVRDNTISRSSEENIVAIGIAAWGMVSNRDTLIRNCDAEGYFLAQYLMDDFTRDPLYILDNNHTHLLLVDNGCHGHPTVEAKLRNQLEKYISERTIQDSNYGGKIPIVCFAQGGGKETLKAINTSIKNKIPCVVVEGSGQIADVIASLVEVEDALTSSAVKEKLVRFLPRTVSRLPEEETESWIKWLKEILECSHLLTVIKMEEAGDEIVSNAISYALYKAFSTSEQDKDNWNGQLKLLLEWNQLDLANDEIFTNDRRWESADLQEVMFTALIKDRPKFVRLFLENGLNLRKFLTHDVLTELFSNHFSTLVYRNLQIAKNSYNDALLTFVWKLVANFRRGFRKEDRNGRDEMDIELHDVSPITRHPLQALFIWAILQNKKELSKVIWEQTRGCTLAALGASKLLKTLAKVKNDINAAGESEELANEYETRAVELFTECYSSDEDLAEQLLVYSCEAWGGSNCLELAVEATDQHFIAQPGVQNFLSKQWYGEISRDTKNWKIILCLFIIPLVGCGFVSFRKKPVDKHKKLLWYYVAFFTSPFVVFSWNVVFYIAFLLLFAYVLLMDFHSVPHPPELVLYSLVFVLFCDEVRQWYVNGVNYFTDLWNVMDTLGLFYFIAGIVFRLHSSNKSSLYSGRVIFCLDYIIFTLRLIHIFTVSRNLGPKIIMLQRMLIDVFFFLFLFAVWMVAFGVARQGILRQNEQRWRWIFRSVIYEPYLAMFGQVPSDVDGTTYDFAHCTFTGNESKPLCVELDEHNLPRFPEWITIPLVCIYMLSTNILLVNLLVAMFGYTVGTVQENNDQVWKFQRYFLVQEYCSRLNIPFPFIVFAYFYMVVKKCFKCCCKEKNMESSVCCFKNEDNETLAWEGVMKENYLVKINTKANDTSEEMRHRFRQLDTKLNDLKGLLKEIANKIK

| Structure (SMILES) | activity against TRPA1 (TRPA1) | EC50 (hTRPM8) [µM] | activation of TRPM5 in primary screen (TRPM5) |
| --- | --- | --- | --- |
| O=C(C1CCCCC1)N1CC(=O)N2CCc3ccccc3C2C1 (racemic) [±PZQ, praziquantel] | lack of activity | ~25 |  |
| O=C(C1CCCCC1)N1CC(=O)N2CCc3ccccc3[C@H]2C1 [(S)-PZQ] |  |  | not activated |
